Data on 1 compound can be found in patent US20090062124A1, “Ethephon-induced enhancement of seedling development” (priority 2007, published 2009).

Values joined by “and” are separate entries in the source; they are usually repeats but may differ in a detail not shown here. Identical values can stand only once.

Common to all, as to type: in vivo
The test system of one assay is Corn seedlings. The assay can be described thus: Corn seedlings sprayed with ethephon in greenhouse conditions. On the procedure: (§1) The effects of ethephon treatment on the root development of corn and wheat was evaluated. Corn and wheat seedlings at the two to three leaf stage were treated with ethephon in greenhouse conditions. All plants in the treatment groups received a single application by spraying of various concentrations of aqueous solutions of ethephon (0, 1.0, 3.8, 7.6, 11.4, 15.2 and 30.4 mM ethephon for wheat, and 0, 3.8, 5.7, 7.6, 11.4, 15.2, 30.4, 45.6, and […] ethephon for corn) to plants at the cotyledon stage. Root development, measured as tap root and lateral root lengths for corn and tap root length for wheat, and shoot length and root hair production were also determined for wheat, seven days after spraying. To evaluate the effect on as a seed treatment, wheat and corn seeds were soaked in aqueous ethephon solutions (90 mM) for 10 seconds prior to planting.

The test system of the next assay is wheat seedlings. Nature of the assay: Wheat seedlings sprayed with ethephon in greenhouse conditions. The conditions noted are these: between 1 mM and 7.6 mM ethephon, seven days after spraying, vs untreated controls. On the procedure:
as §1

The test system of a further assay is Cotton plants. Nature of the assay: Cotton plants sprayed with ethephon at the cotyledon stage in greenhouse conditions. On the procedure: (§2) Cotton plants were treated with ethephon in greenhouse conditions to evaluate the effects of ethephon application. All plants in the treatment groups received a single application by spraying of various concentrations of aqueous solutions of ethephon (0, 1.0, 3.8, 7.6, and 15.2 mM ethephon) to plants at the cotyledon stage. Lateral root production, leaf numbers and leaf size, and number of cotton squares were determined 7 to 80 days after spraying. To evaluate the effect on as a seed treatment, cotton seeds were soaked in aqueous ethephon solutions (10, 20, 30, and 50 mM) for 10 seconds prior to planting.

The test system of assay [1] is Soybean seedlings (46G02 RR/STS, Kelly Green Seeds). The assay can be described thus: Soybean seedlings sprayed with ethephon in greenhouse conditions. On the procedure: Soybean seedlings (46G02 RR/STS, Kelly Green Seeds) at the cotyledon—second leaf stage were treated with ethephon in greenhouse conditions to evaluate the effects of ethephon application. All plants in the treatment groups received a single application by spraying of various concentrations of aqueous solutions of ethephon (0, 1.0, 3.8, 7.6, and 15.2 mM ethephon) to plants at the cotyledon stage. Root development, measured as tap root and lateral root lengths, and seedling growth were determined 7 days after spraying.

For a further assay, the system named is cotton seeds. Nature of the assay: Cotton seeds soaked in aqueous ethephon solutions prior to planting. Particulars: seeds soaked 10 seconds; 10, 20, 30 and 50 mM tested. On the procedure:
as §2

Assay [2] has as its system dryland field grown cotton. The assay can be described thus: Dryland field grown cotton sprayed with ethephon, seed cotton yield. The conditions noted are these: 3.8 mM single spray at cotyledon, two leaf or four leaf stage; vs non-treated controls; FIG. 1. On the procedure: The effects of ethephon treatment on dryland field grown cotton were measured. All plants in the treatment groups received a single application by spraying of 3.8 mM ethephon at either the cotyledon stage, two leaf stage, and four leaf stage. Cotton yields, measured as seed cotton weight, were measured at the end of the season following harvest.

Where [3] appears, read: between 3.8 and 11.4 mM ethephon, seven days after spraying, vs untreated controls.
The mark [4] stands for this setting: spray, 0, 1.0, 3.8, 7.6 and 15.2 mM tested.
The mark [5] stands for this setting: sprayed cotton, 7 to 80 days after spraying.
Setting [6] is: 7 days after spraying, vs untreated controls.

Turning to `O=P(O)(O)CCCl` [Ethephon, (2-chloroethyl)phosphonic acid], in the assay with Corn seedlings (setting [3]), the lateral root length result is given as “statistically significant increases” and the taproot length entry is reported as “statistically significant increases”. For the same compound, in the assay on Corn seedlings (spray, FIG. 4), the “ethephon concentration giving optimum results” value is listed as 7.6 mM. In the assay with wheat seedlings, the shoot length entry is “statistically significant increases” and the taproot length entry was “statistically significant increases”. Also, in the assay with Cotton plants (3.8 mM ethephon vs control), the “increase in fruiting sites (cotton squares)” value is reported as 30%. Also, in the assay with Cotton plants (3.8 mM ethephon, single spray at cotyledon stage, greenhouse, average of 3 reps (control 42)), the “Average # of squares” value amounted to 55. Further, in the assay on Cotton plants (3.8 mM ethephon, single spray at cotyledon stage, greenhouse, per rep), the Number of squares is 58 and 54 and 53. Further, in the assay on Cotton plants (setting [4]), the “ethephon concentration giving optimum results” value was 3.8 mM. Moreover, in the assay with Cotton plants (setting [5]), the “fruiting (number of cotton squares)” value is listed as “increased fruiting”, the lateral root development result was “statistically significant increases”, the leaf size result was “without a decrease in leaf size” and the “rate of leaf production (measured as numbers of leaves)” value was “statistically significant increases”. Moreover, in assay [1] (setting [6]), the seedling growth entry was “statistically significant increases”; the “taproot and lateral root development” value is given as “statistically significant increases”. In assay [1] (setting [4]), the “ethephon concentration giving optimum results” value was 3.8 mM. In addition, the “optimum seed soak concentration” value in the assay on cotton seeds is listed as 30 mM. The “cotton yields (seed cotton weight)” value in assay [2] was “significantly increased yields”.
